Measurements: patent US20020187514A1 (priority 1999, published 2002)

Legend:
[1] = molecular target: Adrenergic, Alpha 2A (Homo sapiens, UniProt P08913); assay: Adrenergic, Alpha 2A (Human); [3H]MK-912; format: binding; details: read-out: Pass 1 (10^−5 M) % Inhibition
[2] = molecular target: Adrenergic, Alpha 2B (UniProt P19328); format: binding
[3] = molecular target: T1, Cannabinoid, CB1 (Homo sapiens, UniProt P21554); assay: Cannabinoid, CB1 (Human recombinant); [3H]-CP55940; format: binding; details: read-out: Pass 1 (10^−5 M) % Inhibition
T1 construct: expressed in transfected cells

[4] = molecular target: T2, Dopamine, D4.4 (Homo sapiens, UniProt P21917); assay: biochemical; format: binding; details: read-out: Pass 1 (10^−5 M) % Inhibition
T2 construct: expressed in transfected cells

[5] = system: Glutamate, AMPA Site; assay: Glutamate, AMPA Site; [3H]AMPA; format: binding; details: 10^−5 M
[6] = system: Glutamate, NMDA Agonist Site; assay: Glutamate, NMDA Agonist Site; [3H]CGP 39653; format: binding; details: 10^−5 M
[7] = system: Glutamate, NMDA, Glycine (Stry-insens Site); format: binding; details: 10^−5 M
[8] = system: Imidazoline, I1; assay: Imidazoline, I1; [125I]-Clonidine; format: binding; details: 10^−5 M
[9] = molecular target: T3, Opiate, Delta 2 (Homo sapiens, UniProt P41143); assay: Opiate, Delta 2 (Human Recombinant); [3H]-Naltrindole; format: binding; details: read-out: Pass 1 (10^−5 M) % Inhibition
T3 construct: expressed in transfected cells

[10] = molecular target: Opiate, Kappa 1 (UniProt P41144); format: binding
[11] = molecular target: Serotonin, 5HT1A (Homo sapiens, UniProt P08908); assay: biochemical; format: binding; details: read-out: Pass 1 (10^−5 M) % Inhibition
[12] = molecular target: Serotonin, 5HT2C (UniProt K7GSR7); format: binding
[13] = molecular target: Serotonin, 5HT3 (Mus musculus, UniProt P23979); assay: biochemical; format: binding
[14] = molecular target: T4, Serotonin, 5HT4 (Cavia porcellus, UniProt O70528); assay: biochemical; format: binding; details: read-out: Pass 1 (10^−5 M) % Inhibition
T4 construct: no other source notation after assay name denotes animal cell or animal tissue source; from tissue; host or cells: animal cell or animal tissue, not specified

[15] = molecular target: T5, Serotonin, 5HT6 (Homo sapiens, UniProt P50406); assay: biochemical; format: binding; details: read-out: Pass 1 (10^−5 M) % Inhibition
T5 construct: expressed in transfected cells

[16] = molecular target: T6, Serotonin, 5HT7 (Homo sapiens, UniProt P34969); assay: biochemical; format: binding; details: read-out: Pass 1 (10^−5 M) % Inhibition
T6 construct: expressed in transfected cells

[17] = molecular target: Progesterone (Bos taurus, UniProt F1N712); assay: Progesterone; [3H]Promegestone; format: binding; details: read-out: Pass 1 (10^−5 M) % Inhibition
[18] = molecular target: Testosterone (cytosolic) (UniProt P15207); format: binding
[19] = system: GABA, Chloride, TBOB Site; format: binding
[20] = system: Adenosine Transport (cs + es); assay: Adenosine Transport (cs + es) (Human); [3H]-Adenosine; format: biochemical; details: 10^−5 M
[21] = molecular target: Adenosine Transport (es) (Homo sapiens, UniProt Q99808); assay: biochemical; details: read-out: Pass 1 (10^−5 M) % Inhibition
[22] = system: GABA Transport; format: biochemical; details: 10^−5 M
[23] = system: Glutamate Transport; assay: Glutamate Transport; [3H]Glutamic Acid; format: biochemical; details: 10^−5 M
[24] = system: Leukotrine B4, LTB4; assay: Leukotrine B4, LTB4; [3H]LTB4; format: binding; details: 10^−5 M
[25] = system: Leukotrine D4, LTB4; assay: Leukotrine D4, LTB4; [3H]LTD4; format: binding; details: 10^−5 M
[26] = system: Atrial Natriuretic Peptide, ANP A; assay: Atrial Natriuretic Peptide, ANP A; [125I]ANP (Rat); format: binding
[27] = system: Corticotropin Releasing Factor, CRF; format: binding
[28] = molecular target: T7, Platelet Activating Factor, PAF (Oryctolagus cuniculus, UniProt G1TEI7); assay: Platelet Activating Factor, PAF; [3H]Hexadecyl, PAF; format: binding; details: read-out: Pass 1 (10^−5 M) % Inhibition
T7 construct: no other source notation after assay name denotes animal cell or animal tissue source; from tissue

[29] = system: Cholecystokinin, CCK1 (CCKA); assay: Cholecystokinin, CCK1 (CCKA); [125I]CCK-8; format: binding; details: 10^−5 M
[30] = molecular target: T8, Endothelin, ET-B (Homo sapiens, UniProt P24530); assay: biochemical; format: binding; details: read-out: Pass 1 (10^−5 M) % Inhibition
T8 construct: expressed in transfected cells

[31] = molecular target: T9, Neurokinin, NK2 (NKA) (Homo sapiens, UniProt P21452); assay: biochemical; format: binding; details: read-out: Pass 1 (10^−5 M) % Inhibition
T9 construct: expressed in transfected cells

[32] = system: Neurokinin, NK3 (NKB); format: binding; details: 10^−5 M
[33] = molecular target: Neuropeptide, NPY2 (Homo sapiens, UniProt P49146); assay: biochemical; format: binding; details: read-out: Pass 1 (10^−5 M) % Inhibition
[34] = molecular target: T10, Neurotensin (Homo sapiens, UniProt P30989); assay: biochemical; format: binding; details: read-out: Pass 1 (10^−5 M) % Inhibition
T10 construct: expressed in transfected cells

[35] = system: Acetylcholinesterase; assay: Acetylcholinesterase; substrate Acetylthiocholine; format: biochemical
[36] = system: Choline Acetyltransferase; assay: Choline Acetyltransferase; substrate [14C]Acetyl Coenzyme; format: biochemical; details: 10^−5 M
[37] = system: Esterase; assay: Esterase (Human); substrate Acetylthiocholine; format: biochemical
[38] = molecular target: Serotonin Transporter (Rattus norvegicus, UniProt P31652); assay: biochemical; format: binding; details: read-out: % Inhibiton (10^−5 M)
[39] = molecular target: Dopamine, D1 (Homo sapiens, UniProt P21728); assay: biochemical; details: read-out: Pass 1 (10^−5 M) % Inhibition
[40] = molecular target: GABA A, BDZ, alpha 1, central (Bos taurus, UniProt P08219+P22300); assay: biochemical; details: read-out: Pass 1 (10^−5 M) % Inhibition
[41] = molecular target: Muscarinic, M2 (Homo sapiens, UniProt P08172); assay: biochemical; details: read-out: Pass 1 (10^−5 M) % Inhibition
Chain of Muscarinic, M2 (P08172 whole entry): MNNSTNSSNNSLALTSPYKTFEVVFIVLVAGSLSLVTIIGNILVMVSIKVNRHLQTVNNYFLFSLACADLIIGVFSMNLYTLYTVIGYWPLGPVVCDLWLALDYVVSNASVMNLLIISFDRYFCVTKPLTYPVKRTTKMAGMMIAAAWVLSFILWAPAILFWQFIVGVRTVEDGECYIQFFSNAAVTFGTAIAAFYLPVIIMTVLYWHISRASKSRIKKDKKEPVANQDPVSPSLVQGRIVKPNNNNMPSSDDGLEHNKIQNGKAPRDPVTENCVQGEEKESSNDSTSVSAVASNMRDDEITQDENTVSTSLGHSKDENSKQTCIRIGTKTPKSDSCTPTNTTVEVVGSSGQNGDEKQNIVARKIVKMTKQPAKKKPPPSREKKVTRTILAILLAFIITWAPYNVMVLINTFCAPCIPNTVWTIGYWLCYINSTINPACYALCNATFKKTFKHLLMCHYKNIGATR

Chain of Serotonin, 5HT3 (P23979 24-489): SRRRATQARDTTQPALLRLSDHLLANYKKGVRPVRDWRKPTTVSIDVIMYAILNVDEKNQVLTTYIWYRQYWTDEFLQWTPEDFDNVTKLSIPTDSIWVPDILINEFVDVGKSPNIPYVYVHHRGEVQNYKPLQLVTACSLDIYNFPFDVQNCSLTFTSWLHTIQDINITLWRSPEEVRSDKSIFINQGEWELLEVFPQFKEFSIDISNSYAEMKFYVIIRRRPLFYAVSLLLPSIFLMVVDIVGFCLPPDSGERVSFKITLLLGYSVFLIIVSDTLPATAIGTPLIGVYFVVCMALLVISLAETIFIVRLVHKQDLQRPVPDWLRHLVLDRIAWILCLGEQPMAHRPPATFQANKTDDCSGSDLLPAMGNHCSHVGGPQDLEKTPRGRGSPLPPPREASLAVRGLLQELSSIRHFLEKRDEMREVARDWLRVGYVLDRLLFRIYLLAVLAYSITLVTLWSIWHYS
T10 sequence (P30989 whole entry): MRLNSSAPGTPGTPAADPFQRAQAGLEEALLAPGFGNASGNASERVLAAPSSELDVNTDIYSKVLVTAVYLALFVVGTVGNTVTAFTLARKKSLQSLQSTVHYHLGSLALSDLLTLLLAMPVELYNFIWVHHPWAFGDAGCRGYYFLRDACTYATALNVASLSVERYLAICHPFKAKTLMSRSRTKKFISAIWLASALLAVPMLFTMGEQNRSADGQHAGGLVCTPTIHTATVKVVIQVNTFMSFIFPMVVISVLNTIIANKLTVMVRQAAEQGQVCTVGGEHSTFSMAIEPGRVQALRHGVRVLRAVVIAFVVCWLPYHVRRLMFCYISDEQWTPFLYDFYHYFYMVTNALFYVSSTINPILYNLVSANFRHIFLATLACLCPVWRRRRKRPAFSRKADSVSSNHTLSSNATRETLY
Chain of Serotonin Transporter (P31652 whole entry): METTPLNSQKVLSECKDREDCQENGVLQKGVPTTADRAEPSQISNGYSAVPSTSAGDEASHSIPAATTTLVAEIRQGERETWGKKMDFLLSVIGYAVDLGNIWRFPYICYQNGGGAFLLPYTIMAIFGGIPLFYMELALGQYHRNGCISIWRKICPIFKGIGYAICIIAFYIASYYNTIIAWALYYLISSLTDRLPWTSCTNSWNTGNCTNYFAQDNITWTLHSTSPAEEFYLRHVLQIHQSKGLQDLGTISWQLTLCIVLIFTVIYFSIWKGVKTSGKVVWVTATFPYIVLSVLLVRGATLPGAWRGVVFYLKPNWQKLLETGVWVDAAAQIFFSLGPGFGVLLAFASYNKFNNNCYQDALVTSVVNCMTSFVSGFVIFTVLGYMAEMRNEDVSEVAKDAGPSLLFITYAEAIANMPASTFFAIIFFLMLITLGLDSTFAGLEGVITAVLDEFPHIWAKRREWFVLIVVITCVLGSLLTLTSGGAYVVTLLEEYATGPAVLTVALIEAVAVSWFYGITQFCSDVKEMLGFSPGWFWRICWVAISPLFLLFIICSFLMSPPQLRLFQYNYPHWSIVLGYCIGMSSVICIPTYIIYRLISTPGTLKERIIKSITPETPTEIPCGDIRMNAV
Chain of Testosterone (cytosolic) (P15207 whole entry S389L): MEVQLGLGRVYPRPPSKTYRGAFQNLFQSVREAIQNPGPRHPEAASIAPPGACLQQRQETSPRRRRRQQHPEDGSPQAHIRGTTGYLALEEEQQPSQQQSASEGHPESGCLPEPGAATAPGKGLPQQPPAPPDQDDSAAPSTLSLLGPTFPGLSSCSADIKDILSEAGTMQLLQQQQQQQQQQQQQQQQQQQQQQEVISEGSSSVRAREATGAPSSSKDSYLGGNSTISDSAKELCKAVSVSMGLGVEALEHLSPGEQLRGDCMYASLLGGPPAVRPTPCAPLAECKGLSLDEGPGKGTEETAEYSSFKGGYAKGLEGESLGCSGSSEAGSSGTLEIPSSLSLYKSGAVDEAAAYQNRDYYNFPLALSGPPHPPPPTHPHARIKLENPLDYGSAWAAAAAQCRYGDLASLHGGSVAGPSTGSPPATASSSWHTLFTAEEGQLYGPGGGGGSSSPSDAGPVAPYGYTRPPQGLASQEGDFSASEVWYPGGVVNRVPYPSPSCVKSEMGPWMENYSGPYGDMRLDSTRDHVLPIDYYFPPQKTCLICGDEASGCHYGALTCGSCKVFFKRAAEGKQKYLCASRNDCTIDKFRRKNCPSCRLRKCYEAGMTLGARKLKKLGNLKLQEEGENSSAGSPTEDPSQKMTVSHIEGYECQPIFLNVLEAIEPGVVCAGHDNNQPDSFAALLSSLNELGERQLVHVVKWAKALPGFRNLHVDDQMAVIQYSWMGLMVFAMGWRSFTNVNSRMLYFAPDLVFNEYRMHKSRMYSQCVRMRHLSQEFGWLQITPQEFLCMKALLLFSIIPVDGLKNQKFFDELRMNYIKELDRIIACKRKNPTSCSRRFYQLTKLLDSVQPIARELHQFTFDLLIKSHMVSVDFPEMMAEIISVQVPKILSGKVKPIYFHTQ
Chain of Adrenergic, Alpha 2A (P08913 whole entry): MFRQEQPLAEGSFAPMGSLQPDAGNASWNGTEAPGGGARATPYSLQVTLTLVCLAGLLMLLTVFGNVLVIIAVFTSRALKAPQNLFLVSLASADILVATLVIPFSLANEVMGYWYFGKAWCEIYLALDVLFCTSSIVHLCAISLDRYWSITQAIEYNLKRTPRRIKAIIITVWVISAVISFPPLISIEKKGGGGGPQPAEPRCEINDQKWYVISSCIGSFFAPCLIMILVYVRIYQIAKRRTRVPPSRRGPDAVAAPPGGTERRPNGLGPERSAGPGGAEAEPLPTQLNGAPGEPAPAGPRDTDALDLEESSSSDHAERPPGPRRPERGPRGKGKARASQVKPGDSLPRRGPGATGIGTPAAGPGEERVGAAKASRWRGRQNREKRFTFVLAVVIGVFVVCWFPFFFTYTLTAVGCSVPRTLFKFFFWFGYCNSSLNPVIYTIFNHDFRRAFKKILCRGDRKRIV
Chain of Opiate, Kappa 1 (P41144 whole entry): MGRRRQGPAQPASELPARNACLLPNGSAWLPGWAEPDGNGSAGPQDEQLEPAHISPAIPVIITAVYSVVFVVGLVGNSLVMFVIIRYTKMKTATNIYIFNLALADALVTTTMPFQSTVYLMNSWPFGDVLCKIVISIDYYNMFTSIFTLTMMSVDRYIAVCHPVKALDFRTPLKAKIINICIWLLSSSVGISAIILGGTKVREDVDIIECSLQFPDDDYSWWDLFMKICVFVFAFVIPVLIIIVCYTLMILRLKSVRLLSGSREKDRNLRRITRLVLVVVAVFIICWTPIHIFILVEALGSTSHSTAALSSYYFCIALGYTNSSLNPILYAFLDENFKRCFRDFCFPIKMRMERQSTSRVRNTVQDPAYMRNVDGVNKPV
Chain of Adenosine Transport (es) (Q99808 whole entry): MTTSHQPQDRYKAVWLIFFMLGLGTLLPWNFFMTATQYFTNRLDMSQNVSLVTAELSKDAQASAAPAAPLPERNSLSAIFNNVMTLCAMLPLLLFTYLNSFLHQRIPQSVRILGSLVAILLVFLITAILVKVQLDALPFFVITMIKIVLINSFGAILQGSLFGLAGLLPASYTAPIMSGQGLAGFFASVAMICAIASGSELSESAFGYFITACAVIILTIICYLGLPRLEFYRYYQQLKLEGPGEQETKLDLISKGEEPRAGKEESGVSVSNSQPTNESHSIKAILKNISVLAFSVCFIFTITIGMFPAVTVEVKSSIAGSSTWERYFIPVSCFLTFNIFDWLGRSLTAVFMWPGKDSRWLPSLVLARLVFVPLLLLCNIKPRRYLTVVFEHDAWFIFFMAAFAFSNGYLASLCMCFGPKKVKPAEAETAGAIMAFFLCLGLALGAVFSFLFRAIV
Chain of Serotonin, 5HT1A (P08908 whole entry): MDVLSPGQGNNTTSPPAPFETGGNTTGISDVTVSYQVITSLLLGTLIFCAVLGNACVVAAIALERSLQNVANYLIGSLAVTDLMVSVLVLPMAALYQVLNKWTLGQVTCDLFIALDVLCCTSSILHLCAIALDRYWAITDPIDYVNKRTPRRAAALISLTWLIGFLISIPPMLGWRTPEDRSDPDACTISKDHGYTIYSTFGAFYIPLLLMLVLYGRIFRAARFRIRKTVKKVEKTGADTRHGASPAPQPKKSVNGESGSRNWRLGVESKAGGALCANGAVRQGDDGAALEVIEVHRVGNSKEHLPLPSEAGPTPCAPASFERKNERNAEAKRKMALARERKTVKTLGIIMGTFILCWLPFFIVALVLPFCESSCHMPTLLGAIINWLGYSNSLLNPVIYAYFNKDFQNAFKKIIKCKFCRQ
Chain of Neuropeptide, NPY2 (P49146 whole entry): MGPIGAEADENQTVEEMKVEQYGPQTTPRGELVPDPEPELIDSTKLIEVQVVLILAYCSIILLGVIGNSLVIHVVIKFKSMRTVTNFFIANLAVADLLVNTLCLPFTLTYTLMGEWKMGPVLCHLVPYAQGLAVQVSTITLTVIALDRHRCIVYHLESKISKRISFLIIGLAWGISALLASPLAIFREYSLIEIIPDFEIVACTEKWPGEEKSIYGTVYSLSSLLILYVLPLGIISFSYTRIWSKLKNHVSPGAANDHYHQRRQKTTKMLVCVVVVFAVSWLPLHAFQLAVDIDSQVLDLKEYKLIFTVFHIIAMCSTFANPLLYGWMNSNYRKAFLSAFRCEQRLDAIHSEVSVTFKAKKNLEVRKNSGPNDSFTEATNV

Question: `COC(=O)[C@H]1[C@@H](OC(=O)c2ccccc2)C[C@@H]2CC[C@H]1N2C` [cocaine] was tested. Which inhibition at 10 µM [1] did it give?
Answer: 15.3%

Question: And the “Pass 1 (10^−5 M) % Inhibition” value [2]?
Answer: −3.82%

Question: And the inhibition at 10 µM [3]?
Answer: 33.4%

Question: And the inhibition at 10 µM [4]?
Answer: 18.8%

Question: And the “Pass 1 (10^−5 M) % Inhibition” value [5]?
Answer: −9.30%

Question: What about the “Pass 1 (10^−5 M) % Inhibition” value [6] of the same compound?
Answer: 38.66%

Question: What about the “Pass 1 (10^−5 M) % Inhibition” value [7] of the same compound?
Answer: −1.56%

Question: And the “Pass 1 (10^−5 M) % Inhibition” value [8]?
Answer: −0.78%

Question: What about the inhibition at 10 µM [9] of the same compound?
Answer: 21.5%

Question: And the “Pass 1 (10^−5 M) % Inhibition” value [10]?
Answer: 10.19%

Question: What about the inhibition at 10 µM [11] of the same compound?
Answer: 7.63%

Question: And the “Pass 1 (10^−5 M) % Inhibition” value [12]?
Answer: 1.44%

Question: And the Ki ([13]; Pass 3 screening, nine concentrations, read-out: Ki Determination)?
Answer: 3.09 µM

Question: And the inhibition at 10 µM ([13]; read-out: Pass 1 (10^−5 M) % Inhibition)?
Answer: 60.3%

Question: And the inhibition at 10 µM [14]?
Answer: 22.1%

Question: And the inhibition at 10 µM [15]?
Answer: 1.13%

Question: And the inhibition at 10 µM [16]?
Answer: 26.8%

Question: What about the inhibition at 10 µM [17] of the same compound?
Answer: -10.9%

Question: What about the “Pass 1 (10^−5 M) % Inhibition” value [18] of the same compound?
Answer: −7.60%

Question: What about the “Pass 1 (10^−5 M) % Inhibition” value [19] of the same compound?
Answer: 8.40%

Question: And the “Pass 1 (10^−5 M) % Inhibition” value [20]?
Answer: 2.79%

Question: And the inhibition at 10 µM [21]?
Answer: 47.5%

Question: And the “Pass 1 (10^−5 M) % Inhibition” value [22]?
Answer: −19.43%

Question: What about the “Pass 1 (10^−5 M) % Inhibition” value [23] of the same compound?
Answer: 24.20%

Question: And the “Pass 1 (10^−5 M) % Inhibition” value [24]?
Answer: 17.06%

Question: And the “Pass 1 (10^−5 M) % Inhibition” value [25]?
Answer: −17.11%

Question: And the “Pass 1 (10^−5 M) % Inhibition” value [26]?
Answer: 11.36%

Question: What about the “Pass 1 (10^−5 M) % Inhibition” value [27] of the same compound?
Answer: 22.49%

Question: What about the inhibition at 10 µM [28] of the same compound?
Answer: 12.6%

Question: What about the “Pass 1 (10^−5 M) % Inhibition” value [29] of the same compound?
Answer: 11.15%

Question: And the inhibition at 10 µM [30]?
Answer: 0.19%

Question: What about the inhibition at 10 µM [31] of the same compound?
Answer: 13.7%

Question: And the “Pass 1 (10^−5 M) % Inhibition” value [32]?
Answer: −15.24%

Question: And the inhibition at 10 µM [33]?
Answer: 4.27%

Question: And the inhibition at 10 µM [34]?
Answer: 19.1%

Question: What about the “Pass 1 (10^−5 M) % Inhibition” value [35] of the same compound?
Answer: 8.18%

Question: What about the “Pass 1 (10^−5 M) % Inhibition” value [36] of the same compound?
Answer: 8.25%

Question: And the “Pass 1 (10^−5 M) % Inhibition” value [37]?
Answer: 31.58%

Question: What about the inhibition at 10 µM [38] of the same compound?
Answer: 96.2%

Question: And the inhibition at 10 µM [39]?
Answer: 17.5%

Question: And the inhibition at 10 µM [40]?
Answer: 9.58%

Question: What about the inhibition at 10 µM [41] of the same compound?
Answer: 3.57%
